Test system: post-operative intra abdominal adhesions
Assay: Post-operative intra abdominal adhesion formation in rat after laparotomy and musculoperitoneal incision
Format: in vivo
Protocol: Reduction in the occurrence of post-operative intra abdominal adhesions in rat by treatment with the mGluRgIa compound 2-methyl-6-(phenylethynyl)-pyridine (MPEP) at a dose of 12.5 mg/kg 12 male Sprague-Dawleys rats (Charles River Laboratories International, Sutzfeld, Germany), weighing between 250 to 300 g at the initiation of the procedure, were kept at a number of two individuals in one cage of type H3, lined with wood chips and housed in standardized conditions, at a constant room temperature (22° C.) with 12-hour light and dark cycles. All animals were provided free access to standard rodent chow, tap water, nesting material and libitum. All surgical procedures were performed under aseptic conditions in a dedicated surgical animal operating room. The animals were anesthetized using continuous inhalation isoflurane 1.5% to 4% in oxygen, numbered and randomly assigned to two groups of 6 individuals each: one treatment group and one vehicle group. After shaving and disinfection of the abdomen, a 50 mm long midline laparotomy was performed to gain access to the abdominal cavity. A 18 mm long sharp incision was then made through the musculoperitoneal tissue on the left lateral abdominal wall below the epigastric vessel parallel with the midline incision. The injury site was immediately closed with four single sutures places equidistantly using 5-0 polypropylene threat (Prolene; Ethicon, Johnson & Johnson, Somerville, N.J., USA). Just before closing the abdomen, the animals received either mGluRgIa (MPEP 45.35 mM in vehicle) at a dose of 12.5 mg MPEP/kg (treatment group), or vehicle (0.9% NaC1, 10 w % dimethylacetatamide, ˜50 mM hydrochloride, vehicle group), by injecting the solution into the abdominal cavity. The midline laparotomy was then closed in two layers continuous suture using 5-0 polypropylene for the abdomen and 4-0 for the skin. […] Formation of adhesions between the injury site and other uninjured structures within the abdominal cavity was macroscopically evaluated and quantified using the grading ‘0’ for absence of adhesions or ‘1’ for formed adhesions.

## Cc1cccc(C#Cc2ccccc2)n1 [MPEP, 2-methyl-6-(phenylethynyl)-pyridine]
Male Sprague-Dawley rats, 12.5 mg MPEP/kg injected into the abdominal cavity just before closing, evaluated macroscopically after one week, vehicle group 4 of 6
  animals that had developed adhesions: 1 of the 6 animals
Treated rat no. 3 of Example 1, Pic. 1, 18 mm incision on left lateral abdominal wall
  adhesions at the scar of the incision (picture of open abdomen): no visible adhesions
Treatment group, 12.5 mg MPEP/kg into the abdominal cavity, one week after surgery, vehicle group=111100
  adhesion grading per animal (six animals, one digit each): 100000
